From patent US20230382858A1 (Beckley Psytech Limited, priority 2020, published 2023) come the findings set out here.

Series [1] can be described thus: Dynamic Vapour Sorption (DVS). Type of series: physicochemical. As for the experimental part: Sorption isotherms were obtained using a Hiden Isochema moisture sorption analyser (IGAsorp Systems Firmware V20.19.005 COM3) and operated by Isochema Hlsorp 2019 V4.02.0102. The sample was maintained at a constant temperature (25° C.) by the instrument controls. The humidity was controlled by mixing streams of dry and wet nitrogen, with a total flow of 250 ml.min-1. The weight change of the sample was monitored as a function of humidity by a microbalance (accuracy +/− 0.001 mg).
A defined amount of sample was placed in a tared mesh stainless steel basket under ambient conditions. A typical experimental run consisted of three cycles (desorption, sorption, desorption, sorption, desorption and sorption) at a constant temperature (25° C.) and 10% RH intervals over a 0-90% RH range (60 minutes for each humidity level).
This is to obtain in-depth profiling of the material towards humidity at these elevated levels.

Another series deals with Sprague-Dawley rats. Nature of the series: Maximum tolerated dose followed by 7-day repeat-dose toxicology in rats (Study 700040). The class given is in vivo. The settings on record: rat. As for the experimental part:
The study consisted of 2 parts. […] The doses used in part 1 were 15, 30, 50, 65, and 75 mg/kg. Each subsequent dose was administered following at least 24 hours from the commencement of the previous dose. There were 2 males and 2 females in each dose group.
During Phase I, assessments of mortality, clinical signs and body weights were performed. […] The necropsy consisted of an external examination, including reference to all clinically-recorded lesions, as well as a detailed internal examination.
During Phase 2, assessments of mortality, clinical signs and body weights were performed. Following dosing, all animals were euthanized and subjected to a necropsy examination on Day 8. The necropsy consisted of an external examination, including reference to all clinically-recorded lesions, as well as a detailed internal examination. Study plan specific tissues/organs were collected and retained, then trimmed and preserved promptly once the animal was euthanized but these were not further examined microscopically.

Series [2] deals with Salmonella typhimurium tester strains TA98, TA100, TA1535, and TA1537. Description: Bacterial Reverse Mutation Test (Ames test), S. typhimurium. The conditions noted are these: for cytotoxicity: 5000 μg/plate.
Series [3] has as its system Chinese hamster ovary (CHO)-K1 cells. Description: In vitro micronucleus test (flow cytometry). The class given is cell-based. The text has this: The treatment with the vehicle/negative and positive controls was concurrently performed.
A general note: In flow cytometry, cells or beads pass a laser one at a time.

In another series the target is hERG (Homo sapiens, UniProt Q12809). Nature of the series: in vitro. The text has this:
This assay is employed as a screen to assess potential risks for QT interval prolongation.

The mark [4] stands for this setting: intranasal 75 mg/kg for 7 consecutive days.

SMILES strings stand for the structures.

Chain of hERG (Q12809 whole entry): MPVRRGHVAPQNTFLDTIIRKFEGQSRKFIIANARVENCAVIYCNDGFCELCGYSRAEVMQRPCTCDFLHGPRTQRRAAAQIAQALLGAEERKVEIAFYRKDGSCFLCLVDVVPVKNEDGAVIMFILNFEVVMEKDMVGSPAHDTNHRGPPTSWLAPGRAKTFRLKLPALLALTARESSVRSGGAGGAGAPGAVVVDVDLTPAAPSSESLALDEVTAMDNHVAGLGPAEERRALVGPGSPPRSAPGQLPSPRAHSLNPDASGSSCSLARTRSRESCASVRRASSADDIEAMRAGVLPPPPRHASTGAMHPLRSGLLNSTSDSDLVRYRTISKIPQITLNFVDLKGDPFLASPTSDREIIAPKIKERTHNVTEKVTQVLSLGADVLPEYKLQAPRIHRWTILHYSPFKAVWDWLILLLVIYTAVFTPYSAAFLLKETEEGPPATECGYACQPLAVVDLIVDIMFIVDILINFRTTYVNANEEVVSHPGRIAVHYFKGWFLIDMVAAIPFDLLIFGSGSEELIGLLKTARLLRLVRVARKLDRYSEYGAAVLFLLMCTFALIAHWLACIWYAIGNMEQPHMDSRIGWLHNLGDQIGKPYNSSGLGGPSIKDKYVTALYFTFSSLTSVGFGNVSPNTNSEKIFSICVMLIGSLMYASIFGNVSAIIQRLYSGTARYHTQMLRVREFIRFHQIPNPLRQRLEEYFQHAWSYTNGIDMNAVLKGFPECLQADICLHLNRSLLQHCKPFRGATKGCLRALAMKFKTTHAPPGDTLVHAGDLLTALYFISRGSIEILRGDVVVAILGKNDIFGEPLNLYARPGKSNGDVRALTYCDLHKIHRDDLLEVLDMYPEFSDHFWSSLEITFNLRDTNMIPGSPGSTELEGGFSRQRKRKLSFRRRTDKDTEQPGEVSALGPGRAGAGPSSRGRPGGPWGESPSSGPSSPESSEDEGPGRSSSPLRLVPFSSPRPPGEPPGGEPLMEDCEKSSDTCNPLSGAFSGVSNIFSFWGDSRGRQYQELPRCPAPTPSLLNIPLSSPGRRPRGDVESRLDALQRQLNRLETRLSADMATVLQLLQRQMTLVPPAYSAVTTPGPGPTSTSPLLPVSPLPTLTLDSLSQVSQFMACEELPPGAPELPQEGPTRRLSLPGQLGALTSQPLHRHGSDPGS

For the compound `COc1ccc2[nH]cc(CCN(C)C)c2c1.Cl` [5MeODMT Hydrochloride, lot 20/45/006-FP, 5MeODMT Hydrochloride], in series [1] (70-75% RH), the moisture increase entry is recorded as “ca. 0.46 % w/w”. Besides, the further moisture uptake result in series [1] (75-80% RH) is “ca. 7%”; in series [1] (80-85%), “ca. 40%”. Moreover, in series [1] (DVS), the stability towards humidity entry is “robustness between 0-75% RH”. In addition, in series [1] (modified DVS up to 85% RH, likely occurred above 80% RH), the “state of solids post DVS analysis” value is “Complete deliquescence”.
Take `COc1ccc2[nH]cc(CCN(C)C)c2c1` [5MeODMT, 5-methoxy-N,N-dimethyltryptamine]: in the series on Sprague-Dawley rats (setting [4]), the body weight gain entry was “slightly suppressed for both sexes”, the “macroscopic observation: dark/pale area of the lungs” value is on record as 2/10, the mortality entry was “no mortalities” and the tolerability entry is “tolerated”. Besides, in the series with Sprague-Dawley rats (single intranasal 15-75 mg/kg), the clinical signs entry is “incoordination, shallow or increased respiration, sneezing, salivation, decreased activity, piloerection, white pasty material around penis (for males), ptosis, laying on the cage floor, and sensitive to touch and shaking”; the “mortality and gross pathology” value is “no mortality and gross pathology findings at any dose”; the “time to resolution of most clinical signs post dose” value was at most 1 h. For the same compound, in the series with Sprague-Dawley rats (single intranasal, dose levels up to 75 mg/kg), the tolerability entry was “tolerated”. For the same compound, in the series on Sprague-Dawley rats (single intranasal, females at 75 mg/kg), the body weight gain entry was “slightly suppressed”. For the same compound, in series [2] (absence of S9 mix), the cytotoxicity entry was “higher levels of cytotoxicity”. In addition, the cytotoxicity entry in series [2] (presence of S9 mix) was “remained slight”. Moreover, in series [2] (TA1537 and TA98, absence of S9 mix, 15-2000 μg per plate), the “revertant colonies in repeated test” value was “no increases in the revertant colonies number per plate”. In series [2] (all bacteria strains tested, absence or presence of S9), the “mutagenic potential (conclusion)” value was “no mutagenic potential”. Also, the “chromosome-damaging potential (conclusion)” value in series [3] (CHO-K1 cells) was “no chromosome-damaging potential”. Moreover, the cytotoxicity or precipitation result in series [3] (up to 300 μg/mL, all treatment periods) is listed as “No cytotoxicity or precipitation”. The same compound came in with an inhibition at 30 µM at hERG of 77.8 ± 7.4%.
For the compound `COc1ccc2[nH]cc(CCN(C)C)c2c1.Cl` [5MeODMT Hydrochloride, lot 20/20/126-FP, 5MeODMT Hydrochloride], the “state of material upon completion of the DVS cycle” value in series [1] (0-90% RH cycles) is listed as “completed deliquesced”. In addition, the moisture uptake result in series [1] (25° C., 0-70% RH) is given as “less than 0.3 % w/w”; in series [1] (25° C., first sorption cycle, 70-80% RH), “Approximately 23 w/w”. Moreover, in series [1] (25° C., subsequent sorption and desorption cycles), the “mass above the minimum recorded at 0% RH after subsequent cycles (retention of moisture)” value is listed as 6-9 % w/w. In addition, the further moisture uptake in series [1] (25° C., up to and when held at 90% RH) is on record as 20 % w/w.

Usually inhibition stands for the change of the read-out against control, counted positive when it falls. The low end stands for little suppression, the high end for strong suppression.
